Experimental data: patent US10975016B2, “Solvent compounds for use as glycol ether replacements” (TBF ENVIRONMENTAL TECHNOLOGY INC., priority 2017, dated 2021)

Assays:
[1] = XBC vs Dipropylene Glycol Methyl Ether (DPM) in acrylic modified epoxy ester based paint: physical and coating properties; settings: for Specific Gravity: acrylic modified epoxy ester (Epotuf 38-698) based paint; for VOC (Without Water) / Viscosity / Volume Solid % / Weight Solid %: acrylic modified epoxy ester based paint
Experimental: The properties of XBC4, in comparison to dipropylene glycol methyl ether (DPM), in an acrylic-modified epoxy ester-based paint were determined to be as follows: […]

[2] = VOC (calculated) of water-based paint formulas; format: physicochemical; settings: water-based paints, substituted for propylene glycol
Experimental: Bis(2-ButoxyEthyl Carbonate) was tested in a number of water-based flat paints, as follows. Water was added to a container and the additives were added. The container was placed under a high speed disperser and mixed under slow speed. Natrosol™ hydroxyethylcellulose was added slowly and allowed to mix for 10 minutes increasing speed as needed. The pigments were then added, slowly increasing speed and water as needed. After the pigments were added, the speed was increased to about 2800 rpms. After 10 to 15 minutes the speed was reduced to about 1000 rpms. The latex was added slowly into the vortex. The rest of the water and other additives (depending on the formulation) were then added and allowed to mix for 5 minutes.
In some tests, bis(2-ButoxyEthyl Carbonate) was substituted for propylene glycol to evaluate its effectiveness in replacing propylene glycol to create a lower VOC and lower toxicity material.

[3] = Physical/chemical properties of XBC4 (GlykoSol)

Compound: COC(C)COC(C)CO (stereo not drawn) [DPM, dipropylene glycol methyl ether, reference compound]
- Specific Gravity [1]: 1.23 g/cm3
- VOC (Without Water) [1]: 110 g/L
- Viscosity [1]: 90 KU
- Volume Solid % [1]: 35.5%
- Weight Solid % [1]: 46.9%

Compound: CCCCOCCOC(=O)OCCOCCCC [XBC4, bis(2-ButoxyEthyl Carbonate)]
- VOC of paint after replacement of propylene glycol [2]: far lower or zero (0) VOC materials
- Specific Gravity [1]: 1.23 g/cm3
- VOC (Without Water) [1]: 34 g/L
- Viscosity [1]: 90 KU
- Volume Solid % [1]: 35.5%
- Weight Solid % [1]: 46.9%
- Auto Ignition Temp [3]: 305 (581° F.) ° C.
- Boiling Point [3]: 297 (566.6° F.) ° C.
- Butyl Cellosolve Solubility [3]: Soluble
- Clarity [3]: Clear
- Colour (Alpha, max) [3]: 10 (Clear)
- Flashpoint [3]: 146.1 (295° F.) ° C.
- Odor [3]: No Odor
- Partial Coefficient (Range) [3]: 1.9-3.0
- Volatility (%) [3]: 100%
- Water Solubility [3]: Not Soluble
- Specific Gravity ([3]; @15.5° C.): 0.985
- Density ([3]; @ 20° C.): 0.980 (8.22 lbs/gal) g/mL
- Solubility in H2O ([3]; @ 25° C.): Partially Soluble
- Vapour Pressure ([3]; @ 25° C.): 0.008 mm Hg
- Viscosity ([3]; @ 25° C.): 0.60 cP
- VOC ([3]; ASTM 313-91): 0 g/L
- Vapour Density (Air = 1) ([3]; Air = 1): 0.95
- TGA Weight Loss ([3]; Range 115-240°): 99.47%
- Evaporation Rate (n-Butyl Acetate = 1) ([3]; n-Butyl Acetate = 1): 0.01
